Test results from US6566047B1, “Method for identifying neurite-growth promoting agents” (The Regents of the University of Colorado, priority 1998, dated 2003).
Entries after “also recorded” stand apart in the source; their conditions may differ.

Assays:
[1] = system: growth cone PLA2; test: PLA2 assay in growth cone particles (GCPs); type: biochemical, rat
Procedure: Growth Cone Particle (GCP) Isolation. GCPs were prepared as described by Pfenninger et al. (1983) and modified by Lohse et al., Dev. Brain Res., 96:38-96 (1996). Briefly, 18-day fetal brains were homogenized in approximately 8 volumes of 0.32 M sucrose containing 1 mM MgCl2, 2 mM TES buffer, pH 7.3, and 3 μM aprotinin. A low-speed supernatant (1,660 g×15 min) was loaded onto a discontinuous sucrose density gradient With steps of 0.83 M and 2.66 M sucrose containing MgCl2 and TES. The gradients were spun to equilibrium at 242,000 g for 40 min in a vertical rotor (Vti50, Beckman). The GCP fraction at the 0.32/0.83 M sucrose interface was collected and used for the experiments described below.
(§1) All assays were run in triplicate.

[2] = system: cPLA2; test: PLA2 activity (14C-AA release) in MAT-Lu cells; type: biochemical, rat; conditions: 5 mM dithiothreitol
[3] = system: growth cones in cultures of rat cerebral cortex; test: Growth cone collapse assay in cortical neuron culture; type: cell-based; conditions: thrombin 100 nM; TRAP (100 mM); 12(S)-HETE 10^−7 M
Procedure: Neuron Culture. Cerebral cortices were dissected from embryonic day 18 Sprague-Dawley rats, cut into explants of less than 1 mm^3 and cultured on either poly-D-lysine-coated coverglass (Assistent) or poly-D-lvsine-coated tissue culture plastic. After 24 hours in B27 neurobasal medium (NB) supplemented with 10% fetal bovine serum, cultures were switched to serum-free B27/NB. The cultures were incubated at 37° C. in 5% CO2 in air. Sprouting neurons were observed readily on day 1. On day 2 or 3, long neurites were present, and the cultures were used for collapse experiments.
Actin Staining. After experimentation, cultures were fixed by slow infusion of fixative (4% paraformaldehyde in 0.1 M phosphate buffer, pH 7.4) into the culture dishes over 10 min (Pfenninger and Maylié-Pfenninger, J. Cell Biol. 89:53-546 (1981)). Thereafter, the fixative was removed by rinsing three times with phosphate-buffered saline (PBS) containing 1 mM glycine. Cultures were then blocked with PBS/1% bovine serum albumin (BSA) and permeabilized by incubation in 0.02% Triton X-100 for 5 min. After three washes in PBS/BSA, cultures were incubated with Texas-Red-conjugated phalloidin for 30 min. Unbound phalloidin was washed away by two PBS rinses, after which the coverglasses were mounted in Slow-Fade Light on microscope slides. Images were recorded on 35 mm film using a Zeiss Axiophot fluorescence microscope equipped with epiillumination.
Growth Cone Collapse Assay. Prior to repellent factor treatment, some of the day 2-3 explant cultures were pre-incubated (at 37° C.) with inhibitor or vehicle control (dimethylsulfoxide or ethanol) for 30-60 min. Cultures were then challenged with a repellent factor or vehicle control for 1-30 min. In some experiments, live cultures were photographed with a Zeiss IM 35 inverted photo microscope equipped with a stage heater, while in others cultures were fixed (as above) after 7 minutes of repellent factor treatment. Growth cone collapse was assessed quantitatively in aldehyde-fixed cultures by grading the degree of collapse in a large number of randomly selected growth cones.

[4] = system: AT-2 cells; test: Pseudopod length / retraction assay, AT-2 cells; type: cell-based, rat; conditions: for pseudopod retraction response of AT-2 cells: AA even at 10^−1M
Procedure: (§2) Pseudopod Morphometry. To study the effects of various agents on pseudopods on a short-term basis, we measured pseudopod lengths. Cells plated in 35-mm diameter dishes at low density (1×10^4 per dish) were incubated overnight, tie medium was changed, and the experiments were run four hours later. First, cultures were shifted to serum-free medium, which was replaced one hour later by serum-free medium with or without the various agents (thrombin, AA or HETEs). Care was taken to avoid heat and light inactivation of the eicosanoids. Culture dishes were placed on a Zeiss inverted microscope equipped with a heated stage and viewed with a 16×phase contrast objective lens. Randomly selected fields of the cultures, containing generally about 20 cells each, were recorded, digitized and stored in the computer at the onset of the experiment and at different times thereafter.
(§3) In some cases, individual cells were monitored over different periods of time immediately after introduction of the reagent, either by mixing it into the medium or by applying it locally to one end of the cell. Local application was done with a “puffer” system that expels microliter amounts of the desired solution from a micromanipulator-controlled micropipette tip. Cell morphology was recorded, and the captured images were analyzed with a Power Macintosh computer using NIH Image. Cell process length was measured from the center of the nucleus to the end of the process. Characterization of the frequencies of pseudopod lengths, at a fixed time for each of a sequence of concentrations of reagent, utilized a gamma regression model with an inverse quadratic linear predictor (McCullagh and Nelder, Generalized Linear Models 2d ed., pp. 291-292 (Chapman & Hall, 1989), separately fit to each concentration data set. Although no formal goodness-of-fit tests were carried out, in virtually every case there was good visual representation of the pattern of response (see FIG. 14). Most data, however, are shown as whisker-box plots, where the center point represents the 50%, the ends of the box the […] and 75%, and the “whiskers” the 5% and 95% quantiles (e.g., FIG. 11). Statistical comparisons of pseudopod lengths for different treatments were done by standard non-parametric techniques (Wilcoxon Rank Sum or Kruskal-Wallis Tests), as judged appropriate. Polynomial curve fittings were done by standard least-squares techniques. Statistical analyses and graphing were done with the use of SAS procedures: Reg, Phreg, Nparlway and Plot (SAS institute Inc., Cary, N.C.).

[5] = target: 12(S)-HETE receptor; conditions: Liu et al. 1995; Herbertsson and Hammarstrom 1992; cited from earlier work
[6] = system: MAT-Lu cells; test: Pseudopod morphometry (pseudopod length assay), MAT-Lu cells; type: cell-based, rat
Procedure: as §2, §3

[7] = system: protein kinase C (PKC); test: MARCKS phosphorylation by PKC in isolated GCPs; type: biochemical, rat; conditions: 30 sec @ 30° C.; 10^−6M or less free Ca^2+
Source text: FIG. 7A. Thrombin stimulates MARCKS phosphorylation in a 12-LOX-dependent manner. FIG. 7B. 12(S)-HETE stimulates MARCKS phosphorylation by PKC in isolated GCPs. […] Polypeptides were resolved by SDS-PAGE. MARCKS phosphorylation was quantified by phosphorimaging.

[8] = system: high motility (MAT-Lu, MAT-LyLu and AT-3) Dunning carcinoma cells; test: Pseudopod length assay, high-motility Dunning carcinoma cells; type: cell-based, rat
Procedure: as §2
In some cases, individual cells were monitored over different periods of time immediately after introduction of the reagent, either by mixing it into the medium or by applying it locally to one end of the cell. […] Cell morphology was recorded, and the captured images were analyzed with a Power Macintosh computer using NIH Image. Cell process length was measured from the center of the nucleus to the end of the process. […]

[9] = target: PKC γ (Rattus norvegicus, UniProt P63319); conditions: Naor et al. 1988; cited from earlier work
[10] = system: growth cone PLC; test: Phospholipase C assay (DG release) in GCPs; type: biochemical, rat; conditions: IGF-1, low nanomolar range; 10 μM free Ca^2+
Source text: as §1

[11] = system: MAT-Lu cells; test: Boyden chamber motility assay, MAT-Lu cells; type: cell-based, rat
Procedure: Boyden Chamber Motility Assays. Disposable transwells (Coming Costar, Cambridge, Mass.) of 6.5 mm diameter and 8 μm pore size were coated with 5 μg/ml laminin on both sides. The membranes were washed twice with Hank's balanced salt solution (HBSS) and then pre-incubated with growth medium containing 10% fetal bovine serum. Trypsinized cells (5×10^4) were plated into the upper well. After 1 hour the upper chamber was washed twice with HBSS, filled with serum-free medium and moved to a new lower chamber, also filled with serum-free medium, with or without thrombin and/or 0.75 nM insulin-like growth factor-1 (IGF-1). After incubation for 4 hrs, cells on the membrane were fixed and stained with a Diff-Quick kit (Baxter Scientific Products). Cells on the upper side were scraped off, the membranes were removed, mounted onto microscope slides and analyzed. Each filter was scanned twice at right angles under the light microscope with a 16×phase contrast objective lens. A continuous series of 20 frames for each filter was digitized using a high-resolution CCD camera (Kodak) and stored in a Power Macintosh computer. The two most peripheral pairs of frames from each scan were deleted so that 12 frames were analyzed for each filter. Cells that had crossed the membrane were counted and tabulated. The sum of the cells counted in the twelve frames was an individual data point.

## O[C@H](CS)[C@H](O)CS (racemic) [DTT, dithiothreitol]
[1]; Table 3b, GCPs, substrate PI, thrombin 100 nM or control
  net activity (pmol/min/mg protein), 50 nM DTT: 66.0 ± 4.7 pmol/min/mg protein
[2]
  effect of reducing agent on measured PLA2 activity: did not significantly inhibit the measured PLA2 activity

## CCCCC/C=C\C[C@H](O)/C=C/C=C\C/C=C\CCCC(=O)O [12(S)-HETE, 12(S)-hydroxyeicosatetraenoic acid]
[3]
  growth cone collapse, agent alone: mimics the effects of thrombin and TRAP; also recorded: does indeed cause growth cone collapse
[4]; 10^−11M
  effect on AT-2 pseudopod length: seems to increase pseudopod length
[4]
  pseudopod retraction response of AT-2 cells: retraction was not observed
[5]
  Kd: 1 nM
  time required for saturation: 90 to 120 min
[6]; 10^−10M by medium replacement
  time until pseudopod shortening nearly complete for most cells: about 15 min
[6]; 10^−10 M by medium replacement, 73 pseudopods
  time at which pseudopod lengths reach a minimum: about 17 min
[6]; at 10^−11 and 10^−10 M, 15 min, p<0.0001
  length reduction for the median pseudopod length versus control: > 45%
[6]; local application, 10^−10M
  time until pseudopod absorbed completely into the cell: about 15 min
[6]; local application, 10^−10M, about 10 μm from cell process
  onset of pseudopod detachment and shortening: ≤ 1 min
[7]
  concentration at peak of MARCKS and GAP43 phosphorylation (biphasic): about 10^−10 M
[8]; 15-min incubation
  concentration at peak of pseudopod retraction: 10^−11 to 10^−10 M

## CCCCC/C=C\C/C=C\C/C=C\C/C=C\CCCC(=O)O [AA, arachidonic acid]
[9]
  concentration at peak of biphasic PKC γ response: 12 µM
[4]
  pseudopod retraction response of AT-2 cells: almost completely insensitive
[6]; typically 15 min exposure
  effect of agent alone on pseudopod length: caused significant but reversible reduction of pseudopod length; also recorded: mimics the thrombin-induced length reduction; also recorded: causes statistically significant pseudopod shortening
[8]; all three high-motility cell types
  pseudopod response to AA: responded to AA in the manner described for MAT-Lu cells

## IGF-1: insulin-like growth factor-1, positive chemotactic factor
[1]; IGF-1, low nanomolar range, 10 μM free Ca^2+
  stimulation of AA release from PI: about 1.7 fold
[1]; Table 3c, GCPs, substrate PI, BDNF 100, IGF-1 0.75, insulin 1, thrombin 200 nM, control 159 ± 6.2
  net activity (pmol/min/mg protein): 177 ± 14.5 pmol/min/mg protein
[10]
  stimulation of DG release in GCPs: approximately two-fold
[11]; IGF-1 (0.75 nM), 4 hr, thrombin 200 nM, CDC 126 nM
  Mat-Lu cells crossing filter in % of control +/− SEM: 184 +/− 15 % of control
[11]; IGF-1 in the lower chamber, 4 hr
  enhancement of MAT-Lu migration across laminin-coated membrane: about 1.8 fold
[11]; four-hour assays
  increase in MAT-Lu migration: about 80%
